Measured values from patent publication US11298412B2, “Sphingoid compounds for prophylaxis and/or therapy of coronaviridae infection” (priority 2020, dated 2022).
“Also recorded” adds a separate entry of the source.

Tests used:
[1] = tested on: rhinovirus strain RV14 (major strain); assay: Rhinovirus RV14 infection of Hela cells, Trypan Blue cell death; format: cell-based; conditions: 10 μM and 20 μM, added 10 min before or 60 min or 240 min after infection, 4 days
[2] = Surface sphingosine in mouse nasal mucosa after intranasal application, in situ sphingosine kinase assay; format: in vivo; conditions: wild-type mice; 10 μL of 10 μM or 100 μM into the nostrils; 1, 4 and 8 hrs; without washing
Description: Sphingosine (SPH) was applied into the nose of wild-type mice and the concentration of sphingosine on the epithelial cell surface was determined after 1, 4 and 8 hrs (a.i.: after injection of sphingosine). To this end, 10 μL of a 10 μM or a 100 μM sphingosine solution was applied into the nostrils of wild-type mice. Controls received the solvent, i.e. octylglucopyranoside at the same concentration used when sphingosine was applied, or were left untreated. Mice were slightly and very briefly anesthetized with ether. For the intranasal application we used a blunt-end 30 g needle that was covered with a thin plastic film. The blunt-ended needle was inserted into the nostrils approximately 2 mm. Mice were sacrificed after the indicated time, the nasal bone was removed, placed on a 30° C. pre-warmed plastic plate and an area of 2 mm×2 mm was immediately incubated with 0.001 units of sphingosine kinase 1 (#6068-SK-010, R&D) in 4 μl of 150 mM sodium acetate (pH 7.4), 1 μM ATP, and 10 μCi [^32P]γATP/sample. Controls were incubated with the same buffer without sphingosine kinase or were left untreated. […] The TLC plates were analyzed with a phosphoimager. Surface sphingosine levels were determined with a standard curve of C18-sphingosine. […]

[3] = tested on: epithelial cells of the nose; assay: Toxicity of intranasal sphingosine on nasal epithelial cells of mice, Trypan Blue; format: in vivo; conditions: wild-type mice; 10 μL of 10 μM or 100 μM intranasal; 8 hours or 24 hours
Description: Sphingosine was applied into the nose of wild-type mice as in 3.2. 10 μL of a 10 μM or a 100 μM sphingosine (SPH) solution was administered into the nostrils of wild-type mice. Controls received the solvent, i.e. octylglucopyranoside at the same concentration used when sphingosine was applied, or were left untreated. Mice were anesthetized prior to application of sphingosine. Mice were sacrificed after 8 hours or 24 hours, the nasal bone was removed and incubated in Trypsin solution for 10 min to release and isolate epithelial cells. Cells were washed twice in H/S (20 mM HEPES, 132 mM NaCl, 5 mM KCl, 1 mM CaCl2), 0.7 mM MgCl2, 0.8 mM MgSO4, pH 7.4), stained with Trypan Blue (0.2% final concentration) and dead cells were counted in aliquots of 500 cells. Given is the percentage of dead cells±SD from 4 independent experiments each; *p<0.05, ANOVA.

[4] = tested on: rhinovirus strain 2 (RV2); assay: Intranasal RV2 infection of wild-type mice, Hela cell death bioassay of nasal bone; format: in vivo; conditions: 10 μL of 100 μM intranasal 10 min before or 1, 4, 8 hrs after infection, 10^3 PFU, sacrificed after 24 hrs
Description: Mice were infected with 10^3 PFU rhinovirus strain 2 (RV2) in 10 μL PBS. The virus was applied directly into the nose using a blunt ended, plastic coated 30 g needle, that was inserted into the nose approximately 2 mm. Sphingosine (SPH) was applied into the nose of the wild-type mice at a concentration of 100 μM solution in PBS in a volume of 10 μL. Sphingosine was applied either 10 min prior to rhinovirus infection (b.i.) or 1 hr, 4 hrs and 8 hrs after the infection (a.i.). Controls received the solvent, i.e. octylglucopyranoside (OGP) at the same concentration than used when sphingosine was applied, or were left untreated, but infected. Solutions were applied as in 3.2. Mice were sacrificed after 24 hrs, the nasal bone was removed and incubated for 4 days with Hela cells in a 24 well plate. If the nasal epithelial cells are infected, rhinovirus will be released due to the cytopathic effect of the virus and the in vivo infection can then be determined and quantified by measuring cell death of Hela cells as a bioassay. To this end, dead cells were collected, adherent cells were trypsinized, the fractions were combined, washed twice in H/S (20 mM HEPES, 132 mM NaCl, 5 mM KCl, 1 mM CaCl2), 0.7 mM MgCl2, 0.8 mM MgSO4, pH 7.4), stained with Trypan Blue (0.2% final concentration) and dead cells were counted in aliquots of 500 cells as above. […]

rhinovirus 2 (RV2) = assay: RV2 infection of freshly isolated human epithelial cells, Hela cytotoxicity readout; format: cell-based; conditions: 10 μM or 20 μM, 24 hrs
Description: (§1) 10^4 PFU of Rhinovirus 2 or 14 (RV2, RV14) were incubated with freshly isolated human epithelial cells for 24 hrs in the presence of 10 μM or 20 μM sphingosine (SPH) or the corresponding concentration of the solvent octylglucopyranoside (OGP), the cells were pelleted, supernatants completely removed, the cell pellets resuspended in PBS and added to Hela cells. Cells were incubated for 3 days and cytotoxicity as measurement for virus titers was determined. Shown is the mean±SD, n=4, *p<0.001 ANOVA.

rhinovirus 14 (RV14) = assay: RV14 infection of freshly isolated human epithelial cells, Hela cytotoxicity readout; format: cell-based; conditions: 10 μM or 20 μM, 24 hrs
Description: as §1

recombinant ACE2 = target: T1, recombinant ACE2 (Homo sapiens, UniProt Q9BYF1); assay: Binding of lipids to immobilized recombinant ACE2; conditions: sphingosine at 2 μM
T1 construct: purchased Abcam ab273687

[5] = target: T2, receptor binding domain of spike S1 / ACE2 (Homo sapiens, UniProt Q9BYF1); assay: Binding of recombinant RBD of spike S1 to immobilized Fc-ACE2, western blot
T2 construct: purchased Abcam (Fc-ACE2); Sino Biologicals (RBD-spike) ab273687 (Fc-ACE2); MA FE2702B, #40150-R007 (as printed for RBD-spike)

[6] = target: T3, receptor-binding domain of spike protein / ACE2 (Homo sapiens, UniProt Q9BYF1); assay: Binding of Fc-ACE2 to RBD-spike immobilized on Ni-agarose, western blot; conditions: RBD immobilized on Ni2+-agarose; Fc-ACE2 with 1 μM or 2 μM sphingosine
T3 construct: purchased Abcam (Fc-ACE2); Sino Biologicals (RBD-spike) ab273687 (Fc-ACE2); MA FE2702B, #40150-R007 (as printed for RBD-spike)

[7] = target: pp-VSV-SARS-CoV-2 / recombinant ACE2 (Homo sapiens, UniProt Q9BYF1); assay: Binding of pp-VSV-SARS-CoV-2 to immobilized recombinant ACE2, Vero infection with supernatant; conditions: 1 or 2 μM sphingosine; immobilized Fc-ACE2
pp-VSV-SARS-CoV-2 = assay: Adhesion of pp-VSV-SARS-CoV-2 on Vero cells, flow cytometry with anti-spike S1; format: cell-based; conditions: 20 minutes infection in presence of lipid

T1 sequence (Q9BYF1 18-805): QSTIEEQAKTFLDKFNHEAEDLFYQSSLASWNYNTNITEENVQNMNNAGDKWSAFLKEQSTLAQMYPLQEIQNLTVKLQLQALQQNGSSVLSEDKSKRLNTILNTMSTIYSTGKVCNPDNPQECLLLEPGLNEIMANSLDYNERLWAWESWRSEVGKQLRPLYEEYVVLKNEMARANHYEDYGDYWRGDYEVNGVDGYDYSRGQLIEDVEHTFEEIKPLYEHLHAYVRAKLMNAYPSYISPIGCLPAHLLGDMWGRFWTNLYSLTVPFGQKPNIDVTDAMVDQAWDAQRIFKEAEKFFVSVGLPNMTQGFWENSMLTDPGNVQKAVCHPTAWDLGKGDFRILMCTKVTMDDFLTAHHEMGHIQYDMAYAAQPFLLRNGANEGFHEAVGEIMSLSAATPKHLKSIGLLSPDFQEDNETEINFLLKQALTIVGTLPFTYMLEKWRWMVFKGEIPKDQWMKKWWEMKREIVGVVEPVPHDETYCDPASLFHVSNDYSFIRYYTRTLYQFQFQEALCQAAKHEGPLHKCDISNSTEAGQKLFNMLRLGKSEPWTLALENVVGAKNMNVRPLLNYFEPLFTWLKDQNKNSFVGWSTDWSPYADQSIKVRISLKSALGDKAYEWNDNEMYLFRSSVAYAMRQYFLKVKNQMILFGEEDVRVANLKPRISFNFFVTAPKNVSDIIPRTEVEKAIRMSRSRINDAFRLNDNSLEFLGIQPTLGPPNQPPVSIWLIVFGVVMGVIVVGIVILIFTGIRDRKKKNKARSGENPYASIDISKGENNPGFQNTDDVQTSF
Chain of pp-VSV-SARS-CoV-2 / recombinant ACE2 (Q9BYF1 18-740): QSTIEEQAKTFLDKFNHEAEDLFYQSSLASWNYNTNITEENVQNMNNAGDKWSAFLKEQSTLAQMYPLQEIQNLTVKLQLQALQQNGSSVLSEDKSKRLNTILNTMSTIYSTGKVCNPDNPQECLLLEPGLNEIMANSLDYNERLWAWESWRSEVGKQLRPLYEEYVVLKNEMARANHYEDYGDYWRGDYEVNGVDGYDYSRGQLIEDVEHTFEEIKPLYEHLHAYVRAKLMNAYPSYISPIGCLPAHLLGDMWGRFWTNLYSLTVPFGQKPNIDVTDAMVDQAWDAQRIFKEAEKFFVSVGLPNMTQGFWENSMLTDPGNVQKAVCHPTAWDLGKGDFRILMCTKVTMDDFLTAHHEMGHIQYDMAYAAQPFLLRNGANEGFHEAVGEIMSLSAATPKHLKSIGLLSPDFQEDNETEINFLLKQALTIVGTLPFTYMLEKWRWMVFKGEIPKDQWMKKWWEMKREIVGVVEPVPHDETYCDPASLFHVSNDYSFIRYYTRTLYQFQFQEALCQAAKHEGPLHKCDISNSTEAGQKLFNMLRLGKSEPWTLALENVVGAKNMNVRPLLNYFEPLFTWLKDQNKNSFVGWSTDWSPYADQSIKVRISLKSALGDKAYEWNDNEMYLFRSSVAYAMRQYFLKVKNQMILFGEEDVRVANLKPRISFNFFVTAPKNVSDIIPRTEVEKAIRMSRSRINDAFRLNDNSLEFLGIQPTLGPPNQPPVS
T2 sequence (Q9BYF1 18-740): as above
T3 sequence (Q9BYF1 18-740): as above

CCCCCCCCCCCCC/C=C/[C@@H](O)[C@@H](N)CO [sphingosine, (2S,3R,4E)-2-amino-4-octadecene-1,3-diol]
infection with RV14 (percentage of dead cells) [1]: prevented the infection; also recorded: prevention of RSV2 and RSV14 infection | sphingosine concentration on the nasal epithelial cell surface / in the mucosa [2]: dose-dependent accumulation of sphingosine in the mucosa; also recorded: dose dependent increase in the local sphingosine concentration in the nasal mucosa | toxic effects on nasal epithelial cells (percentage of dead cells) [3]: no toxic effects on epithelial cells of the nose; also recorded: no toxic side effects | infection with RV2 in vivo (percentage of dead Hela cells) [4]: prevented; also recorded: prevents infection by RSV2 | infection of human epithelial cells by RV2 (rhinovirus 2 (RV2)): abrogates infection of human epithelial cells; also recorded: prevents infection of freshly isolated human nasal epithelial cells | infection of human epithelial cells by RV14 (rhinovirus 14 (RV14)): abrogates infection of human epithelial cells; also recorded: prevents infection of freshly isolated human nasal epithelial cells | binding of lipid to immobilized recombinant ACE2 (beads) (recombinant ACE2): revealed a binding of sphingosine to ACE2; also recorded: selectively couples to beads with bound recombinant ACE2; also recorded: binds the ACE2 receptor | binding of recombinant receptor binding domain of spike S1 to ACE2 ([5]; immobilized Fc-ACE2 pre-incubated with 1 μM or 2 μM sphingosine): prevented binding of recombinant receptor binding domain of spike S1 to ACE2 | binding of the recombinant RBD of spike S1 to ACE2 ([5]; immobilized Fc-ACE2 pre-incubated with 2 μM sphingosine): reduced binding of the recombinant RBD of spike S1 to ACE2 | interaction of the receptor-binding domain of spike protein with ACE2 [6]: abolished the interaction of the receptor-binding domain of spike protein with ACE2 | binding of intact pp-VSV-SARS-CoV-2 to recombinant ACE2 [7]: abrogated binding of intact pp-VSV-SARS-CoV-2 to recombinant ACE2; also recorded: prevents binding of SARS-CoV-2 spike protein to the ACE2 receptor | binding of pp-VSV-SARS-CoV-2 to the cell surface (pp-VSV-SARS-CoV-2): prevented binding of pp-VSV-SARS-CoV-2 to the cell surface
